IC50 data for 24 compounds are collected here from patent publication US10047104B2, “Bicyclic heterocyclyl derivatives as IRAK4 inhibitors” (Aurigene Discovery Technologies Limited, priority 2014, dated 2018).

The IC50 is the concentration that inhibits the measured activity by half.

The target of this assay is T1, recombinant IRAK-4 kinase (Homo sapiens, UniProt Q9NWZ3).
T1 construct: purchased Millipore, USA
T1 sequence (Q9NWZ3 1-460): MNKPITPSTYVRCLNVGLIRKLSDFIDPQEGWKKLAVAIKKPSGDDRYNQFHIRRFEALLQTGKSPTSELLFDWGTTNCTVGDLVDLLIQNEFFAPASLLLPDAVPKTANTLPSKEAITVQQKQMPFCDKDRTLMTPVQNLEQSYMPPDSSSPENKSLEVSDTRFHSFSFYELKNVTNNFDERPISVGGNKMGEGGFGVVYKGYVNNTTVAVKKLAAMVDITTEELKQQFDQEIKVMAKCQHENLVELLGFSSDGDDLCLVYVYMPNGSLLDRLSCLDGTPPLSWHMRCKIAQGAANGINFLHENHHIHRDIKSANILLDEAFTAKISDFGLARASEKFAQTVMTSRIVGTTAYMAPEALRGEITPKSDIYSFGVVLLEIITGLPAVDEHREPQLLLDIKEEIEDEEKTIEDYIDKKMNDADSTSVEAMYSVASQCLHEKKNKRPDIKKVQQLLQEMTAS
As to the kind of experiment: IRAK-4 Biochemical Assay (TR-FRET). To be noted: 5 ng IRAK-4 kinase, 100 nM Biotin Histone H3, 20 μM ATP, 30 minutes pre-incubation, read-out: IC50 values for IRAK4 activity. Summed up: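 Recombinant IRAK-4 (5 ng) pre-incubated with compound 30 min at room temperature in Tris-HCl pH 7.5 with MgCl2/MnCl2, then 100 nM biotin-histone H3 and 20 μM ATP added for 30 min. Stopped with EDTA; phospho-Ser10 read by TR-FRET (Eu-antibody/APC-streptavidin).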
For orientation: TR-FRET usually uses a lanthanide donor and a delayed reading to cut background.

SMILES strings stand for the structures. Counter-ions that a name gives are not always drawn. Some results are limits rather than exact numbers.

Consider `Cc1cc(-c2ccc(C(=O)Nc3cc4oc(N5CCOCC5)nc4nc3N3CC[C@H](O)C3)o2)ccn1` [Example 107, (S)—N-(5-(3-hydroxypyrrolidin-1-yl)-2-morpholinooxazolo[4,5-b]pyridin-6-yl)-5-(2-methylpyridin-4-yl)furan-2-carboxamide], for which the IC50 was over 100 nM.

Take `Cc1cc(-c2ccc(C(=O)Nc3cc4oc(N5CCOCC5)nc4nc3N3CC[C@H](O)C3)s2)ccn1` [Example 108, (S)—N-(5-(3-hydroxypyrrolidin-1-yl)-2-morpholinooxazolo[4,5-b]pyridin-6-yl)-5-(2-methylpyridin-4-yl)thiophene-2-carboxamide]: the IC50 was over 100 nM.

Take `Cc1cc(-c2nc(C(=O)Nc3cc4oc(N5CCCCC5)nc4nc3N3CCC3)co2)ccn1` [Example 109, N-(5-(azetidin-1-yl)-2-(piperidin-1-yl)oxazolo[4,5-b]pyridin-6-yl)-2-(2-methylpyridin-4-yl)oxazole-4-carboxamide]: the IC50 was over 100 nM.

Regarding `Cc1cc(-c2nc(C(=O)Nc3cc4oc(N5CCOCC5)nc4nc3N3CCC3)co2)ccn1` [Example 110, N-(5-(azetidin-1-yl)-2-morpholinooxazolo[4,5-b]pyridin-6-yl)-2-(2-methylpyridin-4-yl)oxazole-4-carboxamide], the IC50 is under 50 nM.

In the case of `Cc1cc(-c2nc(C(=O)Nc3cc4oc(N5CCCCC5)nc4nc3N3CCCC3)co2)ccn1` [Example 111, 2-(2-methylpyridin-4-yl)-N-(2-(piperidin-1-yl)-5-(pyrrolidin-1-yl)oxazolo[4,5-b]pyridin-6-yl)oxazole-4-carboxamide], the IC50 is under 50 nM.

Regarding `Cc1cc(-c2nc(C(=O)Nc3cc4oc(N5CCOCC5)nc4nc3N3CCCC3)co2)ccn1` [Example 112, 2-(2-methylpyridin-4-yl)-N-(2-morpholino-5-(pyrrolidin-1-yl)oxazolo[4,5-b]pyridin-6-yl)oxazole-4-carboxamide], the IC50 was over 100 nM.

In the case of `Cc1cc(-c2ccc(C(=O)Nc3cc4oc(N5CCOCC5)nc4nc3N3CCCCC3)o2)ccn1` [Example 113, 5-(2-methylpyridin-4-yl)-N-(2-morpholino-5-(piperidin-1-yl)oxazolo[4,5-b]pyridin-6-yl)furan-2-carboxamide], the IC50 was under 50 nM.

Take `Cc1cc(-c2ccc(C(=O)Nc3cc4oc(N5CCOCC5)nc4nc3N3CCC(O)CC3)o2)ccn1` [Example 114, N-(5-(4-hydroxypiperidin-1-yl)-2-morpholinooxazolo[4,5-b]pyridin-6-yl)-5-(2-methylpyridin-4-yl)furan-2-carboxamide]: the IC50 is under 50 nM.

Consider `Cc1cc(-c2ccc(C(=O)Nc3cc4oc(N5CCOCC5)nc4nc3N3CCC[C@@H](O)C3)o2)ccn1` [Example 115, (R)—N-(5-(3-hydroxypiperidin-1-yl)-2-morpholinooxazolo[4,5-b]pyridin-6-yl)-5-(2-methylpyridin-4-yl)furan-2-carboxamide], for which the IC50 was under 50 nM.

In the case of `Cc1cc(-c2nc(C(=O)Nc3cc4oc(N5CCOCC5)nc4nc3-c3ccoc3)co2)ccn1` [Example 116, N-(5-(furan-3-yl)-2-morpholinooxazolo[4,5-b]pyridin-6-yl)-2-(2-methylpyridin-4-yl)oxazole-4-carboxamide], the IC50 is under 50 nM.

Regarding `Cc1cc(-c2nc(C(=O)Nc3cc4sc(N5CCOCC5)nc4nc3N3CCC[C@H](N)C3)co2)ccn1` [Example 120, (S)—N-(5-(3-aminopiperidin-1-yl)-2-morpholinothiazolo[4,5-b]pyridin-6-yl)-2-(2-methylpyridin-4-yl)oxazole-4-carboxamide hydrochloride], the IC50 is under 50 nM.

`Cc1cc(-c2nc(C(=O)Nc3cc4sc(N5CCOCC5)nc4nc3-c3cn[nH]c3)co2)ccn1` [Example 121, 2-(2-methylpyridin-4-yl)-N-(2-morpholino-5-(1H-pyrazol-4-yl)thiazolo[4,5-b]pyridin-6-yl)oxazole-4-carboxamide]: the IC50 is under 50 nM.

`Cc1cc(-c2nc(C(=O)Nc3cc4sc(N5CCOCC5)nc4nc3-c3ccc(F)nc3)co2)ccn1` [Example 122, N-(5-(6-fluoropyridin-3-yl)-2-morpholinothiazolo[4,5-b]pyridin-6-yl)-2-(2-methylpyridin-4-yl)oxazole-4-carboxamide]: the IC50 was under 50 nM.

Consider `Cc1cc(-c2nc(C(=O)Nc3cc4sc(N5CCOCC5)nc4nc3N3C4CCC3CC(O)C4)co2)ccn1` (stereo not drawn) [Example 123, N-(5-(3-hydroxy-8-azabicyclo[3.2.1]octan-8-yl)-2-morpholinothiazolo[4,5-b]pyridin-6-yl)-2-(2-methylpyridin-4-yl)oxazole-4-carboxamide], for which the IC50 was under 50 nM.

On to `Cc1cc(-c2nc(C(=O)Nc3cc4sc(N5CCCC(O)C5)nc4nc3N3CCCCC3)co2)ccn1` (stereo not drawn) [Example 124, N-(2-(3-hydroxypiperidin-1-yl)-5-(piperidin-1-yl)thiazolo[4,5-b]pyridin-6-yl)-2-(2-methylpyridin-4-yl)oxazole-4-carboxamide], for which the IC50 is under 50 nM.

In the case of `CC(=O)Nc1cc(-c2nc(C(=O)Nc3cc4sc(N5CCOCC5)nc4nc3N3CCC(O)CC3)co2)ccn1` [Example 125, 2-(2-acetamidopyridin-4-yl)-N-(5-(4-hydroxypiperidin-1-yl)-2-morpholinothiazolo[4,5-b]pyridin-6-yl)oxazole-4-carboxamide], the IC50 is under 50 nM.

`Cc1cc(-c2nc(C(=O)Nc3cc4sc(N5CCCC(O)C5)nc4nc3N3CCC(O)CC3)co2)ccn1` (stereo not drawn) [Example 126, N-(2-(3-hydroxypiperidin-1-yl)-5-(4-hydroxypiperidin-1-yl)thiazolo[4,5-b]pyridin-6-yl)-2-(2-methylpyridin-4-yl)oxazole-4-carboxamide]: the IC50 was under 50 nM.

As to `CC(=O)Nc1cc(-c2nc(C(=O)Nc3cc4sc(N5CCOCC5)nc4nc3N3CCCC(O)C3)co2)ccn1` (stereo not drawn) [Example 127, 2-(2-acetamidopyridin-4-yl)-N-(5-(3-hydroxypiperidin-1-yl)-2-morpholinothiazolo[4,5-b]pyridin-6-yl)oxazole-4-carboxamide], the IC50 is under 50 nM.

As for `Nc1cc(-c2nc(C(=O)Nc3cc4sc(N5CCOCC5)nc4nc3N3CCCC(O)C3)co2)ccn1` (stereo not drawn) [Example 128, 2-(2-aminopyridin-4-yl)-N-(5-(3-hydroxypiperidin-1-yl)-2-morpholinothiazolo[4,5-b]pyridin-6-yl)oxazole-4-carboxamide hydrochloride], the IC50 is under 50 nM.

For `Nc1cc(-c2ccc(C(=O)Nc3cc4sc(N5CCOCC5)nc4nc3N3CCC(O)CC3)o2)ccn1` [Example 129, 5-(2-aminopyridin-4-yl)-N-(5-(4-hydroxypiperidin-1-yl)-2-morpholinothiazolo[4,5-b]pyridin-6-yl)furan-2-carboxamide hydrochloride], the IC50 was under 50 nM.

For the compound `Nc1cc(-c2nc(C(=O)Nc3cc4sc(N5CCOCC5)nc4nc3N3CCC(O)CC3)co2)ccn1` [Example 130, 2-(2-aminopyridin-4-yl)-N-(5-(4-hydroxypiperidin-1-yl)-2-morpholinothiazolo[4,5-b]pyridin-6-yl)oxazole-4-carboxamide hydrochloride], the IC50 was under 50 nM.

Take `Nc1cc(-c2nc(C(=O)Nc3cc4sc(N5CCOCC5)nc4nc3N3CCC(F)CC3)co2)ccn1` [Example 131, 2-(2-aminopyridin-4-yl)-N-(5-(4-fluoropiperidin-1-yl)-2-morpholinothiazolo[4,5-b]pyridin-6-yl)oxazole-4-carboxamide hydrochloride]: the IC50 is under 50 nM.

For the compound `Cc1cc(-c2nc(C(=O)Nc3cc4sc(N5CCCC(O)C5)nc4nc3N3CCC(F)CC3)co2)ccn1` (stereo not drawn) [Example 133, N-(5-(4-fluoropiperidin-1-yl)-2-(3-hydroxypiperidin-1-yl)thiazolo[4,5-b]pyridin-6-yl)-2-(2-methylpyridin-4-yl)oxazole-4-carboxamide], the IC50 was under 50 nM.

On to `Cc1cc(-c2nc(C(=O)Nc3cc4sc(N5CCCC(O)C5)nc4nc3N3CCC(N)CC3)co2)ccn1` (stereo not drawn) [Example 134, N-(5-(4-aminopiperidin-1-yl)-2-(3-hydroxypiperidin-1-yl)thiazolo[4,5-b]pyridin-6-yl)-2-(2-methylpyridin-4-yl)oxazole-4-carboxamide hydrochloride], for which the IC50 was under 50 nM.
